Entries after “also recorded” stand apart in the source; their conditions may differ.
What was measured:
[1] = tested on: MO7e cells; assay: Antimycin A cytotoxicity in MO7e and ABCC4 KO MO7e cells; type: cell-based, Human; details: MO7e; 6MP 10 μM (sublethal), in words
Method: (§1) The Meg01, MO7e, and ABCC4 KO MO7e cell lines were plated at 1500 cells per well in a 96-well plate. Cells were treated with 10 concentrations of Antimycin A (Santa Cruz) ranging from 0.01 to 1000 μM. Cell viability was determined using CellTiter Glo (Promega). […] Cell viability analysis was determined using CellTiter Glo. IC50 values were calculated using GraphPad Prism.

[2] = as above; type: cell-based, Human; details: human, 0.01 to 1000 μM, CellTiter Glo, triplicate
Method: as §1

[3] = target: T1, MPP1 (Homo sapiens, UniProt Q00013); assay: MPP1 protein expression (immunoblot); type: cell-based; details: Antimycin A treatment; Meg01 cells (Supplementary Fig. 6e), in words
T1 construct: incubated with various concentrations of full-length MPP1; His tag (N); S-tag (N); made in house; host or cells: E. coli
T1 sequence (Q00013 1-466): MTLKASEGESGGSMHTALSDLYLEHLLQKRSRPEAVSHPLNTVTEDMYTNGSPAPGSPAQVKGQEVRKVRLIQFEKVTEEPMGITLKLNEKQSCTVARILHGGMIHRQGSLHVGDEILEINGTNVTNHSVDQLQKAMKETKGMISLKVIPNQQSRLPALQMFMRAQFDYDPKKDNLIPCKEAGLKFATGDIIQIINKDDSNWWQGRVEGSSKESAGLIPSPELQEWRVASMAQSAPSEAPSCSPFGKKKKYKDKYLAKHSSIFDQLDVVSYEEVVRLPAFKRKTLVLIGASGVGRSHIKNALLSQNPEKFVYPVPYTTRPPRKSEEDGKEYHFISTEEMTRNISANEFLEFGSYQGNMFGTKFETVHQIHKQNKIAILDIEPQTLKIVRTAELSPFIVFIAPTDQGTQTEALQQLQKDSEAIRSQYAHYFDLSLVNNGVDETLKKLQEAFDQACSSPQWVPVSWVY
Text: Forty-eight hours after transfection, cells were trypsinized and washed twice in PBS. Cells were lysed in MPER lysis buffer (Pierce) containing 1× protease inhibitor cocktail (Roche). Cell lysates were subjected to three rounds of sonication on ice with a minimum of 15 s of sonication per round. Protein concentration of the lysates was quantified using a Bradford assay (Biorad). Twenty-five micrograms of total protein lysates were loaded and separated by SDS-PAGE on a 10% gel. Proteins were then transferred to a nitrocellulose membrane (GE Healthcare) and probed with antibodies directed against various proteins of interest. The levels of pAcGFP-tagged ABCC4 and ABCC4ΔC were determined using the polyclonal full-length GFP antibody (1:2000, Santa Cruz). The level of MPP1 was detected using the monoclonal p55/MPP1 antibody (1:2500) from Epitomics. Where specified, the levels of ABCC4 were detected by using the rat monoclonal M4I10 antibody (1:2000, Abcam). An anti-Actin antibody was used as a loading control (1:10,000). Secondary antibodies conjugated to HRP (1:2000, GE Healthcare) were used. For co-immunoprecipitation experiments, light chain-specific secondary antibodies (1:5000, Jackson Immunoresearch) was used to prevent cross-contamination with heavy chain antibodies. The Clarity chemiluminescence (BioRad) reagent was used to detect the proteins. […]

[4] = tested on: ABCC4 plasma membrane localization in HEK293 cells expressing MPP1 and GFP-ABCC4; assay: ABCC4 plasma membrane localization (confocal microscopy); type: cell-based, Human; details: in words; confocal microscopy
Method: Peptides containing or lacking the ABCC4-PDZ motif were fused with the cell penetrating HIV-TAT peptide. These peptides were tested for their effect on ABCC4 plasma membrane localization. HEK293 cells were transfected with MPP1 and GFP-ABCC4 and the ER protein, calreticulin. The plasma membrane was counter-stained with wheat-germ-agglutinin (WGA) labeled with Alexa647 after treatment with either ABCC4-PDZ or ABCC4ΔC peptide.
HEK293 cells were seeded on chambered coverglass slides (LAB-TEK) 48 h before transfection with plasmid DNA (250 ng) encoding pAc-GFP-ABCC4 or ABCC4ΔC and pCal plasmid encoding the ER resident protein calreticulin conjugated to RFP (Origene). Transfection was performed using Lipofectamine 2000 as per the manufacturer’s instructions. Immediately prior to visualizing cells, cells were counterstained with the plasma membrane marker wheat-germ agglutinin (WGA) conjugated to Alexa-647 (Invitrogen). All confocal microscopy images were acquired on a 3i Marianas system configured with an Yokagowa CSU-X spinning disk confocal microscope utilizing a ×63 Zeiss objective, using the 488 (GFP), 561 (RFP), and 660 (far red) laser lines.

[5] = tested on: MO7e cells; assay: 6MP cytotoxicity in MO7e cells and CRISPR knock-outs; type: cell-based, Human; details: MO7e vs. ABCC4 KO; Antimycin A 10 nM, in words
Method: HEK293 cells transfected with ABCC4 or ABCC4ΔC in the presence or absence of MPP1, MO7e, and Meg01 cells were treated with 10 concentrations of 6MP, ranging from 1 to 1000 µM, for 96 h. Cell viability analysis was determined using CellTiter Glo (Promega). Where applicable, cell penetrating peptides conjugated to the PDZ-binding motif of ABCC4 (labeled either ABCC4-PDZ or ABCC4ΔC) were added to the cells at 20 μM. Media was changed daily and new ABCC4-PDZ/ABCC4ΔC peptide and 6MP was added. IC50 values were calculated using GraphPad Prism.
CRISPR-Cas9 plasmids containing gRNAs against ABCC4 ([…]) and MPP1 ([…]) were purchased from Sigma Aldrich. MO7e cells were transiently transfected with constructs containing the gRNA, Cas9 Nickase, and a flurophore. Forty-eight hours after transfection, cells were sorted for fluorescent positive cells and single cells were sorted into individual wells of a 96-well plate. Single-sorted cells were allowed to expand and deletion of the gene of interest was verified by immunoblotting.
The Meg01, MO7e, and ABCC4 KO MO7e cell lines were plated at 1500 cells per well in a 96-well plate. Cells were treated with 10 concentrations of Antimycin A (Santa Cruz) ranging from 0.01 to 1000 μM. Cell viability was determined using CellTiter Glo (Promega). Meg01, MO7e, and ABCC4 KO MO7e cells in the presence or absence of 10 nM Antimycin A were treated with 10 concentrations of 6MP, ranging from 1 to 1000 µM, for 96 h. Cell viability analysis was determined using CellTiter Glo. IC50 values were calculated using GraphPad Prism.

SMILES: CCCCCC[C@H]1C(=O)O[C@H](C)[C@H](NC(=O)c2cccc(NC=O)c2O)C(=O)O[C@@H](C)[C@@H]1OC(=O)CC(C)C [Antimycin A]
- Antimycin A cytotoxicity in combination with non-cytotoxic 6MP [1]: sensitizes MO7e cells to Antimycin A; also recorded: shifted the Antimycin A survival curve to the left indicating greater toxicity when an ABCC4 substrate was present
- IC50 ([2]; MO7e ABCC4 KO cells, MO7e ABCC4 KO): 1700 nM
- IC50 ([2]; MO7e cells, MO7e): 2200 nM
- effect on protein expression of MPP1 [3]: unchanged; also recorded: does not reduce the protein expression of MPP1
- effect on ABCC4 plasma membrane localization [4]: ABCC4 relocalized from the plasma membrane to the cytosol; also recorded: causes ABCC4 to relocalize from the plasma membrane
- effect of Antimycin A on 6MP sensitivity [5]: shifted the 6MP dose–response curve to the left, but only for cells harboring ABCC4, not ABCC4 KO cells; also recorded: specifically sensitizes ABCC4 expressing MO7e cells, but not ABCC4 KO cells

Source: paper PMC5691054, “An unexpected protein interaction promotes drug resistance in leukemia” (Nature Communications, 2017)
